Assay results published in PMC12498190, “A Photocaged N‐Phosphonopiperidinone as a Selective Photo‐Cleavable DPP8/9 Inhibitor” (Chembiochem, 2025).

Experiments:
DPP9 = DPP9 (Homo sapiens, UniProt Q86TI2); assay: In vitro gel-based competitive ABPP in HEK293 cell lysates, 100 kDa band; set-up: endogenous in cells; host or cells: HEK293 (Cytion, Germany, 300192); settings: HEK293 lysate; 10 µM probe, 1 h; ca. 100 kDa (DPP9) and 70 kDa (PREP); regardless of irradiation
Experimental: Therefore, HEK293 cell lysates were pre‐incubated with 10 µM 5 or DMSO vehicle control for 30 min, followed by a labeling reaction with 2 µM of the serine hydrolase‐specific ABP fluorophosphonate‐alkyne (≡FP) or 10 µM 2 (Figure 2B). […] Of note, this band has been previously assigned as DPP9 (DPP8 would migrate in the same range, but is only expressed at low levels in the used cell line and therefore cannot be visualized by this approach).^[ [36] ^, [37] ^] […] Again, this labeling was observed regardless of prior irradiation. Subsequently, the competitive labeling experiment was conducted by pre‐incubation with compound 5, with or without subsequent irradiation.
(§1) Figure 2 Competitive ABPP with photo‐cleavable inhibitor 5 in HEK293 cells. A) Schematic overview of a competitive ABPP experiment. A proteome is pre‐incubated with a competitor, followed by a labeling reaction with an activity‐based probe (ABP). In the case of a photocaged inhibitor, the active compound can be released via irradiation. Target proteins of the competitor cannot be bound by the ABP, resulting in an absence of the respective protein band in‐gel analysis. Created in BioRender. Najdzion, M. (2025) https://BioRender.com/84zn8cb B) Gel‐based competitive ABPP experiment in HEK293 cell lysates with the broadband serine hydrolase ABP ≡FP or the DPP8/9‐directed ABP 2 and the photocaged inhibitor 5, at the indicated concentrations, after or without prior irradiation with green light for 5 min. The corresponding pre‐incubation time for 5 was 30 min. C) Corresponding in situ competitive ABPP experiment in HEK293 cell culture, again with 10 µM 2 for 1 h. Labeling was competed by pre‐incubation with 20 µM 5 for 1 h, followed by an activation of the photocaged inhibitor by irradiation for 5 min with a green LED lamp, if applicable. D) Green light treatment has no cytotoxic effect. HEK293 cells were irradiated with a green LED lamp in the presence of 0.5% DMSO for 5 min (‘light’), and cell viability was measured after 24 h. […] Data was normalized to the non‐irradiated control (‘dark’). E) Green light treatment leads to the release of the active DPP8/9 inhibitor. HEK293 cells were incubated with compound 1 or 5 for 24 h. For both compounds, cell viability was measured under ‘dark’ (not irradiated) and ‘light’ (irradiated for 5 min with a green LED lamp after the addition of the inhibitor) conditions. […] Data was normalized to the non‐irradiated DMSO control.
For in vitro ABPP, cell lysates were generated from HEK293 cells grown on a 10 cm tissue dish. […] The cell lysates were cleared via centrifugation (30 min, 20,817 × g, 4 °C), and protein concentration was determined with a modified Bradford assay using Roti‐Nanoquant (Carl Roth, Germany). […]

[1] = Cell viability assay (MTT); format: cell-based, human; settings: human, HEK293 cells, regardless of irradiation, read-out: Remaining viability
Experimental: as §1
(§2) In order to validate target engagement in living cells and potential cytotoxic effects of green light treatment, we determined cell viability of HEK293 cells after 24 h inhibitor treatment with 5 with or without 5 min green light irradiation, as the application of DPP8/9 inhibitors at high concentrations and thus elimination of any residual DPP8/9 activity results in cytotoxicity.^[ [38], [39] ^– [40] ^] As a control, effects of green light treatment on cell viability were examined in the absence of any inhibitor after 24 h, again with or without 5 min irradiation (Figure 2D). […] Of note, no additional effect of the photocage on cell viability was observed. In summary, our cell viability studies confirm target engagement in live cells exclusively after photorelease, thereby again confirming the suitability of the photocaged DPP8/9 inhibitor 5 as a cell biological tool compound.
(§3) To investigate the cytotoxicity of compounds, 2 × 10^4 HEK293 cells were cultured in DMEM (+/+) on 96‐well flat‐bottom cell culture plates (Sarstedt, Germany) as described above. After 24 h, cells were treated with indicated concentrations of compounds (final DMSO concentration: 0.5%) and, if applicable, irradiated with a green LED lamp (λ = 520−530 nm; Eurolite, Germany) for 5 min. Control cells were treated with DMSO. Cell viability was measured 24 h after compound treatment. To this end, 25 µL Thiazolyl Blue Tetrazolium Bromide (MTT) solution (5 mg mL^−1 MTT (Sigma Aldrich, USA) in PBS (Gibco, USA)) was added to each well directly into the medium. After 3 h of incubation at 37 °C, the medium was removed and formazan crystals were dissolved by adding 150 µL DMSO (1 h, 37 °C, gentle shaking), followed by an absorbance measurement at 570 and 630 nm as a reference using a Tecan Spark 10 M multimode microplate reader (Tecan Group Ltd., Switzerland). Each experiment was performed with five replicates. Relative cell viability was expressed as a percentage relative to the DMSO‐treated control cells.

HEK293 cells = assay: Cell viability assay (MTT); format: cell-based, human; settings: low micromolar range, 24 h
Experimental: as §1, §2, §3

[2] = format: physicochemical; settings: longer irradiation times, green LED 520-530 nm, up to 5 min
Experimental: With 5 in our hands, we then started our probe characterization by determining the velocity of the photorelease reaction, i.e., the light‐triggered cleavage of the photocage, thereby delivering again the “active” inhibitor 1. To this end, a 50 µM solution of 5 in 10% acetonitrile in MS‐grade water was irradiated with a green LED lamp (λ = 520‐530 nm, 30 W) for the indicated time periods, and the release of the active inhibitor 1 was quantified via liquid chromatography‐mass spectrometry (LC–MS) analysis (Figure 1A). […] After 3 min, cleavage was quantitative (>99%). Importantly, the only products observed were the desired ‘free’ inhibitor 1 and the cleaved photogroup, indicating a clean activation to 1.
Figure 1 DPP inhibition by photo‐cleavable inhibitors. A) LC‐MS analysis of the photocleavage reaction of 5 after irradiation with green light. 50 µM of compound 5 was irradiated with a green LED lamp (λ = 520‐530 nm, 30 W) for up to 5 min, and the resulting reaction mixture was analyzed via LC‐MS. […] B) Resulting quantification of the photolysis of 5 based on peak areas depicted in A) (n = 3 technical replicates). […] Enzyme activity was determined by measuring the release of AMC from the substrate GP‐AMC. […]
Compound 5 was dissolved in DMSO. In order to quantify the effect of irradiation time on photocleavage of the BODIPY moiety, 50 µL aliquots of a 50 µM solution of 5 in 10% acetonitrile (ACN; VWR Chemicals, USA) in MS‐grade water (VWR Chemicals, USA) were irradiated for 0–5 min with a green LED lamp (λ = 520–530 nm, 30 W; Eurolite, Germany) at room temperature (RT) and gentle shaking (final DMSO concentration: 0.5%).
Quantification of inhibitor release was then determined via LC‐MS on an LTQ XL linear ion trap mass spectrometer (ITMS; Thermo Fisher Scientific, USA) coupled to a DIONEX UltiMate 3000 system (Thermo Fisher Scientific, USA), operated using Xcalibur software 4.4.16.14. […] Quantification was done using Freestyle v1.6. based on the UV spectra (λ = 254 nm) using the Avalon peak detection algorithm. […]

DPP9, sequence (Q86TI2 whole entry): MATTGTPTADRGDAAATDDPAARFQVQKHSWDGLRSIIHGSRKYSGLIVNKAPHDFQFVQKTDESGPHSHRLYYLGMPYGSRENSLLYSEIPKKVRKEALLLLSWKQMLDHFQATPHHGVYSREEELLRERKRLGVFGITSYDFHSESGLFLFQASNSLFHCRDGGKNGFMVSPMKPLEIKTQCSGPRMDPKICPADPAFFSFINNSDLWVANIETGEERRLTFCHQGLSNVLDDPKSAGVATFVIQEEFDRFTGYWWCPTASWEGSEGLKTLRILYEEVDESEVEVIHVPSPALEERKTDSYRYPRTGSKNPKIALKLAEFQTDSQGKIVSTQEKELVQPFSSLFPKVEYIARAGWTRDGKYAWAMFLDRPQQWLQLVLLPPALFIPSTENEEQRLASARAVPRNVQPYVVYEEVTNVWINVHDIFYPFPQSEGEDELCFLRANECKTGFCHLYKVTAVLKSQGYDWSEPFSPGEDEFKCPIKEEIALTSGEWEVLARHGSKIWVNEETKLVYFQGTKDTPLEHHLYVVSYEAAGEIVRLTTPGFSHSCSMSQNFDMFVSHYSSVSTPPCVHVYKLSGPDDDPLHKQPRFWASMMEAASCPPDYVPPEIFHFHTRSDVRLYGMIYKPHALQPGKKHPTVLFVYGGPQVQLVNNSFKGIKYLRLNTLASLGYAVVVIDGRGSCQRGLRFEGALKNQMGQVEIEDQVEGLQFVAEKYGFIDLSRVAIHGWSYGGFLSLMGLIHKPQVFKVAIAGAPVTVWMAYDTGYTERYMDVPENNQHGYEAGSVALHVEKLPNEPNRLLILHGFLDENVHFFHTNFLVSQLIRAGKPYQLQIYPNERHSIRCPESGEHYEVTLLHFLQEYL

SMILES | Bands labeled by the probe in ABPP (in words) (DPP9) | viability at 24 h, 25 µM ([1]; 25 µM) [%] | viability at 24 h, 50 µM ([1]; 50 µM) [%] | Effect on cell viability (in words) (HEK293 cells) | Photostability under photorelease conditions (in words) [2]
C#CCCCP(=O)(OCC)N1CCC[C@H](N)C1=O (some centres unmarked) [Compound 2] | two bands | – | – | – | –
CCCCCc1ccc(SCCP(=O)(OCC)N2CCC[C@H](N)C2=O)cc1 (some centres unmarked) [Compound 1] | – | ~65 | ~15 | did not significantly affect cell viability | did not lead to further side products
